Columns and labels:
[1] = test system: non-cancerous HEK293T cells; assay: MTT cell viability assay, HEK293T; type: cell-based, human; conditions: concentrations tested in the previous assays
Procedure: (§1) For cytotoxicity assays, 1×10^4 cells were seeded per well into a 96-well plate. After 24 h cells were treated with the indicated inhibitors for 72 h and a MTT colorimetric cell viability assay was performed following manufacturer's instructions (Sigma Aldrich, St Louis, Mo.). Absorbance was measured at 570 and 630 nm using a Multiskan Plus Reader (Nanoquant Infinite M200 Tecan Trading AG, Switzerland). Dose-response curves were designed with Graph Pad Prism Software and the half-maximal inhibitory concentration (IC50) values were calculated. Represented data are the mean±SEM of at least three independent experiments with six replicates per condition.

[2] = test system: HCT116 colon cancer cells; assay: MTT cell viability assay, HCT116; type: cell-based, human; conditions: concentrations tested in the previous assays
Procedure: as §1

[3] = test system: mesenchymal Hakai-MDCK cells; assay: E-cadherin protein levels in Hakai-MDCK cells; type: cell-based; conditions: Hakai-MDCK cells (no basal E-cadherin)
Procedure: For western blot analysis, cells were treated with the indicated inhibitors for 48 h and the whole cell extracts were obtained as described previously. Twenty micrograms of lysates were resolved on a 10% polyacrilamide SDS-PAGE followed by western blot analysis performed as previously described. For immunofluorescence assays cells were grown for 24 h on glass coverslips and treated with the indicated inhibitors for 48 h. Cells were fixed with 4% PFA for 15 min, permeabilized with 0.5% […] and incubated with E-cadherin antibody for 2 h. Coverslips were incubated with fluorescein-tagged secondary antibody (Dakopatts, Sweden) for […]. Finally coverslips were mounted with ProLong Gold antifade reagent (LifeTech, UK) and images were taken in epifluorescence microscope (Olympus) using 40× objective. […] One set of SIM Synthetic Focus images were taken in the DAPI channel for Hoechst 33342 staining, and another set of images were taken in the FITC channel for anti-E-cadherin-AlexaFluor488 labeling and analysed by Structured Illumination Microscopy (SIM™) platform to image the cells and Vala's CyteSeer® Cell-Cell Junction Algorithm to quantify the degree of expression and intracellular location of E-cadherin Vala's CyteSeer® Software can also measure relative DNA content by analyzing Total Integrated Intensity (TII) of the Nuclear Image (Ni) on the Nuclear Mask (Nm). […]

HT29 cells = assay: Migration assay, HT29; type: cell-based, human; conditions: HT-29; treated 48 h
Procedure: For invasion assays, cells were treated with Hakin-1 or DMSO as vehicle for 48 h using 1% FBS during the last 24 hours. 3×10^5 MDCK, MDCK-Hakai or LoVo cells were seeded in a cell invasion chamber (Cell invasion assay kit, Chemicon International) containing medium with 2% FBS. After 72 hours for MDCK and MDCK-Hakai Invasive and 16 h for LoVo cells, invasive cells invaded that reach the lower chamber containing 30% FBS were fixed and stained with crystal violet (Sigma Aldrich, St Louis, Mo.) following the manufacturer's specifications. For migration assays, HT29 cells were cultured with Hakin-1 or DMSO as vehicle for 48 h, using medium without serum the last 24 h. In the cell migration chamber were seeded 3×10^5 HT29 cells (Cell migration kit, Millipore, Bedford, Mass.) containing medium without serum. After 16 h, migrated cells in the lower chamber containing serum with 30% FBS were stained with crystal violet and counted following the manufacturer's specifications. For both invasion and migration assays cells were counted in five fields photographed with an Olympus microscope using a 20× objective, experiments were performed in triplicates for each condition and the assays were repeated at least three times. Results are expressed as mean±SD.

[4] = test system: HT-29 colon tumour cell line; assay: MTT cell viability assay, HT-29; type: cell-based, human; conditions: increasing range of concentrations
Procedure: as §1

[5] = test system: ubiquitination in 293T cells; assay: Ubiquitination assay in 293T cells transfected with v-Src and HA-ubiquitin (Hakai not overexpressed); type: cell-based; conditions: vs DMSO
Procedure: Six hours after transfection cells were treated with indicated concentrations of Hakin-1, Hakin-5 or the rest of the compounds tested for 36 h. Whole cell extracts were obtained in lysis buffer (20 mM Tris-HCl pH 7.5, 150 mM NaCl and 1% Triton X-100) containing 10 μg/ml leupeptin, 10 μg/ml aprotinin and 1 mM phenylmethanesulphonyl fluoride (PMSF), supplemented with 10 mM N-ethylmaleimide. Cells were harvested and subjected to western blotting using anti-HA antibody to detect ubiquitination.

renal cancer ACHN cells = assay: BrdU proliferation assay, ACHN; type: cell-based, human; conditions: 48 h
Procedure: (§2) For BrdU assays, 1×10^4 of indicated cells were plated per well into a 96-well plate. After 24 h, cells were treated with the indicated inhibitors for 48 h. Three independent experiments were plated with six replicates per each condition. Cells were treated with […] BrdU for 2 h. BrdU incorporation into newly synthesized DNA was measured using a cell proliferation colorimetric immunoassay kit according to the manufacturer's instructions (Roche, Switzerland). Results are expressed as mean±S.D. Results are represented as percentage of positive cells (mean±S.D) of three independent experiments.

[6] = test system: bladder cancer 5637 cells; assay: BrdU proliferation assay, 5637; type: cell-based, human; conditions: 48 h
Procedure: as §2

[7] = test system: Hakai-dependent ubiquitination of the E-cadherin complex; assay: Hakai-dependent ubiquitination of the E-cadherin complex (immunoprecipitation); type: cell-based; conditions: 293T cells transfected with Flag-Hakai, myc-E-cadherin, v-Src, HA-ubiquitin; IP anti-E-cadherin
Procedure: For immunoprecipitation experiments, 293 cells were transfected with 3 μg Src, 4 μg Flag-Hakai, and 2 μg HA-ubiquitin and 3 μg E-cadherin with Lipofectamin 2000 (Invitrogen, UK). 24 h after transfection, cells were lysed for 20 min in 1 ml of 1% Triton X-100 lysis buffer (20 mM Tris-HCl pH 7.5, 150 mM NaCl and 1% Triton X-100) containing 10 μg/ml leupeptin, 10 μg/ml aprotinin and 1 mM phenylmethanesulphonyl fluoride (PMSF), supplemented with 10 mM N-ethylmaleimide and 2.5 mM sodium orthovanadate. After centrifugation at 18.000 g for 10 min, the supernatants were immunoprecipitated for 2 h with 2 μg of anti-E-cadherin antibody bound to 60 μl of protein G PLUS-Agarose beads, followed by SDS-polyacrylamide gel electrophoresis (PAGE) and western blotting with the indicated antibodies as previously reported.

Hakai-MDCK cells = assay: BrdU proliferation assay, Hakai-MDCK; type: cell-based; conditions: 48 h
Procedure: as §2

Structure (SMILES) | cytotoxic effect (cell viability, MTT) [1] | cytotoxic effect (cell viability, MTT) [2] | E-cadherin protein levels [3] | cell migration (HT29 cells) | cytotoxicity (cell viability, MTT) [4] | ubiquitination when Hakai was not overexpressed [5] | cell proliferation (BrdU) (renal cancer ACHN cells) | cell proliferation (BrdU) [6] | Hakai-dependent ubiquitination of E-cadherin complex [7] | cell proliferation (BrdU) (Hakai-MDCK cells)
O=C(O)c1ccc(-n2nnnc2SCC(O)c2ccc([N+](=O)[O-])cc2)cc1 (stereo not shown) [MKH1] | no cytotoxic effect | no cytotoxic effect | – | – | – | – | – | – | – | –
O=C(O)c1ccc(-n2nnnc2SCC(=O)c2ccc([N+](=O)[O-])cc2)cc1 [Hakin-1, 4-(5-[2-(4-nitrophenyl)-2-oxoethyl]thiol-1H-tetrazol-1-yl)benzoic acid] | – | – | no recovery was detected | important reduction of cell migration | important inhibitory response | did not affect ubiquitination | inhibited cell proliferation | inhibited cell proliferation | reduction of Hakai-dependent ubiquitination of E-cadherin complex | suppress proliferation
